Experimental data taken from patent US20210283163A1, “COMPOSITIONS AND METHODS FOR THE TREATMENT OF ACUTE AND CHRONIC PRURITIS” (Duke University, priority 2018, published 2021).

Legend:
mice [1] = assay: Pain tests for mechanical and thermal sensitivity after intraplantar injection; format: in vivo, mouse; conditions: miR-711 1 mM, AITC 10 mM, 10 μL
Procedure: Pain Tests for Mechanical and Thermal Sensitivity. Mice were habituated to the environment for at least 2 days before the testing. All the behaviors were tested blindly. […] For testing mechanical sensitivity, we confined mice in boxes (14×18×12 cm) placed on an elevated metal mesh floor and stimulated their hind paws with a series of von Frey hairs with logarithmically increasing stiffness (0.16-2.00 g, Stoelting), presented perpendicularly to the central plantar surface. We determined the 50% paw withdrawal threshold by Dixon's up-down method (Dixon, Annu. Rev. Pharmacol. Toxicol. 1980, 20, 441-462). Thermal sensitivity was tested using Hargreaves radiant heat apparatus (Hargreaves et al., Pain 1988, 32, 77-88) (IITC Life Science). For the radiant heat test, the basal paw withdrawal latency was adjusted to 10-15 s, with a cutoff of 25 s to prevent tissue damage.

mmu-TRPA1 = target: T1, mmu-TRPA1 (Mus musculus, UniProt Q8BLA8); assay: Whole-cell patch clamp in CHO cells transfected with wild-type mmu-Trpa1 cDNA; format: cell-based; conditions: miR-711 10 μM, AITC 50 μM
T1 construct: HA; expressed in transfected cells; host or cells: CHO cells (ATCC CRL-9096), transient transfection with Lipofectamine 2000
T1 sequence (Q8BLA8 whole entry): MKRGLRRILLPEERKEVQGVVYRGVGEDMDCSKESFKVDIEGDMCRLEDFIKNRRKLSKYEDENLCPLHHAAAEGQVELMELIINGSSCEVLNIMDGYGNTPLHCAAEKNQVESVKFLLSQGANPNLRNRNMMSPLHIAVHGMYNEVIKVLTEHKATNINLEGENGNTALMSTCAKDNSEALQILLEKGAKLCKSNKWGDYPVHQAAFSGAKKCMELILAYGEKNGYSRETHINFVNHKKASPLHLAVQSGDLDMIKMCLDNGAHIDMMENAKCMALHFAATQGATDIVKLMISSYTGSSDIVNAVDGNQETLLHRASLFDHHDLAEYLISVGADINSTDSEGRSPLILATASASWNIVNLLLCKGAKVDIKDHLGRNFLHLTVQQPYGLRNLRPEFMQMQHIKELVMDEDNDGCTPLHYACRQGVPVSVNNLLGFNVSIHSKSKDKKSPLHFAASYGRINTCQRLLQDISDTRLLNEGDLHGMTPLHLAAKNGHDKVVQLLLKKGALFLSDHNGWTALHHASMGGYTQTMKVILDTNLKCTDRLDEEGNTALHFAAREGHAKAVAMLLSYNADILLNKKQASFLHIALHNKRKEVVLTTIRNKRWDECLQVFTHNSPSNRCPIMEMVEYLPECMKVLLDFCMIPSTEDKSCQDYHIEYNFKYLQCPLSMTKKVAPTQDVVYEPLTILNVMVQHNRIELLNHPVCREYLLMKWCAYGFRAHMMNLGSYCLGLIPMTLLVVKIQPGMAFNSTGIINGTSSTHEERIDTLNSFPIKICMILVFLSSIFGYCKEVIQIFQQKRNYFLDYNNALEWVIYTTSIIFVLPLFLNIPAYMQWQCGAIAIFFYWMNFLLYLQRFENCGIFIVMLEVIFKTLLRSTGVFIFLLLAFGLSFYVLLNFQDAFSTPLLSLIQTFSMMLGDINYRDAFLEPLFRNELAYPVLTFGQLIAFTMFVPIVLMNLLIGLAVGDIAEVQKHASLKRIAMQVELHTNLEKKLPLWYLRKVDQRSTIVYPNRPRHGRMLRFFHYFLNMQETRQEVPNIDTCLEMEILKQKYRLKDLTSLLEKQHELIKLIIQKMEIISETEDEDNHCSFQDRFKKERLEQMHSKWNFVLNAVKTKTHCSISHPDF
Procedure: (§1) Constructs. The cDNAs of mouse pcDNA3.1-Trpa1, pcDNA3.1-Trpv1, pcDNA3.1-Trpv2, pcDNA3.1-Trpv3, and pcDNA3.1-Trpv4 were kindly provided Dr. Sun Work Hwang from Korea University. Mouse Trpa1 cDNA was subcloned into pCGN-HA backbone (Addgene) using In-Fusion HD Cloning Kit (Clontech Laboratories, CA). Q5 Site-Directed Mutagenesis Kit was used to generate mTrpa1 mutant (M1-M13) based on pCGN-mTrpa1.
(§2) Cell Culture and Transfection. CD4^+ Myla cell line was cultured in RPMI 1640 media (GIBCO), supplemented with 2 mM Glutamine (GIBCO), 100 U/mL IL-2 (Sigma), 100 U/mL IL-4 (Sigma), and 10% human AB serum (Sigma). HuT 102 cell line was cultured in RPMI 1640 supplemented with pyruvate, HEPES, and 10% (v/v) fetal bovine serum (HyClone). HEK293-hTRPA1 stable cell line was cultured in MEM (GIBCO) containing 2 mM Glutamine, 4 μg/mL Blasticidin, 10% FBS (v/v). B16 and CHO cells were cultured in high glucose (4.5 g/L) Dulbecco's Modified Eagle's Medium (GIBCO) containing 10% (v/v) fetal bovine serum (GIBCO). Culture media were supplemented with 50 units/mL of penicillin and 50 μg/mL streptomycin, and cultures were maintained with 5% CO2 in 37° C. incubator. Transfection (2 μg cDNA) was performed with Lipofectamine™ 2000 Reagent (Invitrogen) at 80% confluency and the transfected cells were cultured in the same media for 48 hr before electrophysiological and biochemical studies. […]

mice [2] = assay: Back model: intradermal nape injection, scratching; format: in vivo, mouse; conditions: 0.01-1 mM, 10 μL
Procedure: Behavioral Assessment for Scratching (Itch) and Wiping (Pain). Mice were shaved on the cheek or nape after a brief anesthesia with isoflurane. Before experiments, mice were habituated in small plastic chambers (14×18×12 cm) daily for two days. The room temperature and humidity remained stable for all the experiments. […] After the injection, the number of scratches in 60 min was counted. A scratch was counted when a mouse lifted its hind paw to scratch the shaved region and returned the paw to the floor or to the mouth. A bout of wiping was defined as a continuous wiping movement with a forepaw directing at the area of the injection area (Shimada and LaMotte, Pain 2008, 139, 681-687). Scratching and wiping behavior was videoed for 30 min or 60 min using Sony HDR-CX610 camera. The video was subsequently played back offline and the numbers of scratches and wipes were quantified in a blinded manner.

TRPV4 = target: T2, TRPV4 (Mus musculus, UniProt Q9EPK8); assay: Whole-cell patch clamp in CHO cells transfected with mouse Trpv4 cDNA; format: cell-based; conditions: miR-711 10 μM; GSK1016790A 1 μM
T2 construct: expressed in transfected cells; host or cells: CHO cells (ATCC CRL-9096), plasmid pcDNA3.1-mTrpv4, a gift from Korea University
T2 sequence (Q9EPK8 whole entry): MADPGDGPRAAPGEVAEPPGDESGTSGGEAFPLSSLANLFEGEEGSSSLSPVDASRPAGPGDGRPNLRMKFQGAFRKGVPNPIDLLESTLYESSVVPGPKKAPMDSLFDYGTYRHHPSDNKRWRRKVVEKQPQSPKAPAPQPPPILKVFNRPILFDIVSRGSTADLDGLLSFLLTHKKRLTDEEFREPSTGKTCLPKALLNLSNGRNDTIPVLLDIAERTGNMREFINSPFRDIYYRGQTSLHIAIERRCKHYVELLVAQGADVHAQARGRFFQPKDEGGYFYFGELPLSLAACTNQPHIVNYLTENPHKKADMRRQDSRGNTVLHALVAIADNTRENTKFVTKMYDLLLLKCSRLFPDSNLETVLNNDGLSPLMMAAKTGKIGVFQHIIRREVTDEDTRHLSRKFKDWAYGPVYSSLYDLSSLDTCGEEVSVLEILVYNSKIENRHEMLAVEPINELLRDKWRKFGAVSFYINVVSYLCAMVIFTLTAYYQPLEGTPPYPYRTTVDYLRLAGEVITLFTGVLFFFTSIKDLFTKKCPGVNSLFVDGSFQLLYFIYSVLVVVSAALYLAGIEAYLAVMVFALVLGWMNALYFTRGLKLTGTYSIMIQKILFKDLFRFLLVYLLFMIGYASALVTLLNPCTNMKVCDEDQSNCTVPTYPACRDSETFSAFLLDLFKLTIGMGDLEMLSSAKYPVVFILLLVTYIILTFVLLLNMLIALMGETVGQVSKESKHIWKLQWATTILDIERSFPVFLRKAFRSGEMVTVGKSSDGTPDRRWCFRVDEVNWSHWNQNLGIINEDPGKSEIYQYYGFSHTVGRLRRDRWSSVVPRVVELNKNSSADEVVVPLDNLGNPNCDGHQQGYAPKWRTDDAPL
Procedure: as §1, §2

hTRPA1 = hTRPA1 (Homo sapiens, UniProt O75762); assay: Calcium imaging (Fura-2) in TRPA1-expressing HEK293 cells; format: cell-based; conditions: 50 μM
Chain of hTRPA1 (O75762 whole entry): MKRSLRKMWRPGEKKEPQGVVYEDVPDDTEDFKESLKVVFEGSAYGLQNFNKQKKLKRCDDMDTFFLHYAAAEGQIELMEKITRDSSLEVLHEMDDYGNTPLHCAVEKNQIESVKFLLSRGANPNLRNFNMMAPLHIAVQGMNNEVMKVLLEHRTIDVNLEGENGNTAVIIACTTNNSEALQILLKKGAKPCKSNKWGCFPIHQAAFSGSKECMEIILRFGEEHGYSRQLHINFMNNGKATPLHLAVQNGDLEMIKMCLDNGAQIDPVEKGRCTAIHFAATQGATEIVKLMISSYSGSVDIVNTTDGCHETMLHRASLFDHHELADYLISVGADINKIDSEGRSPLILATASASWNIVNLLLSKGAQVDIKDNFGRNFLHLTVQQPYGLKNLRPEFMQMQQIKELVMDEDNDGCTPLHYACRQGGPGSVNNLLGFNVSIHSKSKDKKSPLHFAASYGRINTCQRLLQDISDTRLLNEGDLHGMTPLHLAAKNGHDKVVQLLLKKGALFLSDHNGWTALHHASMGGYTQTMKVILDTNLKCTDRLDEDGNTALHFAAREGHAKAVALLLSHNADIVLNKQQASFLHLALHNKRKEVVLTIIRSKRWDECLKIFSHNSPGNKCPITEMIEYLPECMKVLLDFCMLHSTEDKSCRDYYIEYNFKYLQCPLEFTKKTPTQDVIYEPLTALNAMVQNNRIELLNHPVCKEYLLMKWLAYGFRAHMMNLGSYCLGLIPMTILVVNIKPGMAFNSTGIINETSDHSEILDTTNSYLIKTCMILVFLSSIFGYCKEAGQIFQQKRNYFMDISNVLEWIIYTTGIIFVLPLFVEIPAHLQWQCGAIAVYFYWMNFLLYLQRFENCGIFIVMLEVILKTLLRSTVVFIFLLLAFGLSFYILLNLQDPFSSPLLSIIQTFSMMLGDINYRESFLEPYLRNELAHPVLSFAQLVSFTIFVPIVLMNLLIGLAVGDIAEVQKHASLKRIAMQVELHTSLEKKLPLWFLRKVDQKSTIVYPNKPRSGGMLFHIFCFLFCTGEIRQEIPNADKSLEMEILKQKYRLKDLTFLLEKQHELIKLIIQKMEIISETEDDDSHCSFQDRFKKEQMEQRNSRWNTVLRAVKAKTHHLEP
Procedure: Ca^2+ Imaging. Ca ^2+ imaging was conducted in mouse DRG and TG neurons from Pirt-GCaMP3 mice (Anderson et al., Neurosci. Bull. 2018, 34, 194-199) at room temperature. The imaging buffer includes 140 mM NaCl, 10 mM D-(+)-Glucose, 1 mM MgCl2, 2 mM CaCl2, 5 mM KCl, 10 mM HEPES, pH=7.4, osmolarity=320 mOsm/L. Calcium signals were measured using green emitted light in a 3 s interval. Ca ^2+ signal amplitudes were presented as ΔF/F0=(Ft−F0)/F0 as ratio of fluorescence difference (Ft−F0) to basal value (F0). The average fluorescence intensity in the baseline period was taken as F0. Ca ^2+ imaging was also analyzed in HEK293-TRPA1 cell line after loading cells with […] fura2-AM (Invitrogen) for 40 min in the Ca^2+ imaging buffer. Ca^2+ imaging protocol was a ratio metric method with 340/380-nm wavelength light for dual excitation. Data were presented as ΔR/R0, determined as the fraction ΔR (Rt−R0) of the increase of a given ratio over baseline ratio (R0).

Compound	heat hyperalgesia (mice [1])	mechanical allodynia (mice [1])	inward currents (mmu-TRPA1)	scratching after intradermal injection on the nape of neck (mice [2])	inward currents (TRPV4)	calcium responses in TRPA1-expressing HEK293 cells (hTRPA1)
C=CCN=C=S [AITC]	elicited marked hyperalgesia and allodynia	elicited marked hyperalgesia and allodynia	induce inward currents	–	–	–
miR-711: mmu-miR-711: gggacccggggagagauguaag (SEQ ID NO: 5) (GGGACCCGGGGAGAGAUGUAAG; chemistry not given here)	failed to induce	failed to induce	induce inward currents	dose-dependent scratching	failed to trigger inward currents	evoked calcium responses
